Results reported in patent US8513227B2, “Inhibition of inflammatory cytokine production with tanshinones” (The Feinstein Institute for Medical Research, priority 2006, dated 2013).

Legend:
[1] = tested on: lethal sepsis; experiment: Lethal sepsis induced by cecal ligation and puncture (CLP) in Balb/C mice; assay type: in vivo
Experimental: Animal models of endotoxemia and sepsis. This study was approved and performed in accordance with the guidelines for the care and use of laboratory animals at the Feinstein Institute for Medical Research, Manhasset, N.Y. Endotoxemia was induced in Balb/C mice (male, 7-8 weeks) by intraperitoneal injection of bacterial endotoxin (LPS, 15 mg/kg) as previously described (Chen et al. 2005; Wang et al. 1999; Wang et al. 2006). Sepsis was induced in male Balb/C mice (7-8 weeks, 20-25 g) or Sprague-Dawley rats (290-310 g) by cecal ligation and puncture (CLP) as previously described (Wang et al. 2006; Yang et al. 2002b). Herbal components were administered intraperitoneally into mice at indicated doses and time points, and mice were monitored for survival for up to two weeks. In parallel experiments, mice were euthanized to collect blood at 28 h (following two doses of herbal components at −0.5 and +24 h) after endotoxemia, and at 52 h (following two doses of herbal components at +24 and +48 h) after CLP.
TNF ELISA. The levels of TNF in the culture medium or serum were determined using commercial enzyme linked immunosorbent assay (ELISA) kits (Catalog no. MTA00, R & D Systems, Minneapolis, Minn.) with reference to standard curves of purified recombinant TNF at various dilutions as previously described (Chen et al. 2004; Rendon-Mitchell et al. 2003; Wang et al. 2006).
Nitric oxide assay. The levels of nitric oxide in the culture medium were determined indirectly by measuring NO^2− production with a colorimetric assay based on the Griess reaction (Rendon-Mitchell et al. 2003). NO2-concentrations were determined with reference to a standard curve generated with sodium nitrite at various dilutions.
(§1) HMGB1 western blotting analysis. The levels of HMGB1 in the culture medium or serum were determined by western blotting analysis as previously described (Chen et al. 2004; Rendon-Mitchell et al. 2003; Wang et al. 1999). The relative band intensity was quantified using NIH image 1.59 software to determine HMGB1 levels with reference to standard curves generated with purified HMGB1.
Tissue histology. At 48 hours after CLP, mice were euthanized in CO2 Chamber, and immediately perfused (transcardially) with phosphate buffer saline and 4% paraformaldehyde. Various tissues were harvested, sectioned, and stained with hematoxylin and eosin for morphology evaluation.

[2] = tested on: HMGB1; experiment: LPS-induced HMGB1 release in murine peritoneal macrophages; assay type: cell-based; details: data not shown
Experimental: Cell culture. Murine macrophage-like RAW 264.7 cells were obtained from the American Type Culture Collection (ATCC, Rockville, Md.), and primary peritoneal macrophages were isolated from Balb/C mice (male, 7-8 weeks, 20-25 grams) at 2-3 days after intraperitoneal injection of 2 ml thioglycollate broth (4%) as previously described (Chen et al. 2004; Rendon-Mitchell et al. 2003). Murine macrophages were pre-cultured in RPMI 1640 medium (Gibco BRL, Grand Island, N.Y.) supplemented with 10% fetal bovine serum (FBS) and 2 mmol/L glutamine. […]
LPS stimulation. […] At 16 hours after LPS stimulation, levels of HMGB1 in the culture medium were determined as previously described (Chen et al. 2004; Rendon-Mitchell et al. 2003; Wang et al. 1999).
as §1

[3] = tested on: TNF; experiment: LPS-mediated TNF secretion in RAW 264.7 macrophages (ELISA); assay type: cell-based, murine; details: macrophages stimulated with LPS >200 ng/ml
Experimental: Cell culture. Murine macrophage-like RAW 264.7 cells were obtained from the American Type Culture Collection (ATCC, Rockville, Md.), and primary peritoneal macrophages were isolated from Balb/C mice (male, 7-8 weeks, 20-25 grams) at 2-3 days after intraperitoneal injection of 2 ml thioglycollate broth (4%) as previously described (Chen et al. 2004; Rendon-Mitchell et al. 2003). Murine macrophages were pre-cultured in RPMI 1640 medium (Gibco BRL, Grand Island, N.Y.) supplemented with 10% fetal bovine serum (FBS) and 2 mmol/L glutamine. Human peripheral blood mononuclear cells (HuPBMCs) were isolated from the blood of healthy donors (Long Island Blood Bank, Melville, N.Y.) by density gradient centrifugation through Ficoll (Ficoll-Paque PLUS, Pharmacia, Piscataway, N.J.), and cultured in RPMI 1640 supplemented with 10% heat-inactivated human serum/0.2 mM L-glutamine as previously described (Rendon-Mitchell et al. 2003). LPS stimulation. […] The levels of TNF in the culture medium or serum were determined using commercial enzyme linked immunosorbent assay (ELISA) kits (Catalog no. MTA00, R & D Systems, Minneapolis, Minn.) with reference to standard curves of purified recombinant TNF at various dilutions as previously described (Chen et al. 2004; Rendon-Mitchell et al. 2003; Wang et al. 2006).

Cc1c(S(=O)(=O)[O-])oc2c1C(=O)C(=O)c1c-2ccc2c1CCCC2(C)C.[Na+] [TSNIIA-SS, tanshinone IIA sodium sulfonate]
signs of hepatic necrosis ([1]; 15 mg/kg, histology 48 hours post onset of sepsis, control 2 out of 12 survivors): not observed in any of the 15 survivors | circulating nitric oxide levels ([1]; 52 h after the onset of sepsis, vehicle 18.0±4.5 μmol/L, n=3, P>0.05): 15.5 ± 3.3 µmol/L | circulating TNF levels ([1]; 52 h after the onset of sepsis, vehicle 65+15 ng/L, P>0.05): 85+23 ng/L | animal survival rate, lethal sepsis ([1]; repeated administration at 24, 48, 72, 96 hours post sepsis, control 33%, P<0.05): 73% | circulating HMGB1 levels in septic mice ([1]; repeated administration, 52 h post CLP, FIG. 7A, P<0.05): dose-dependently, and significantly attenuated | survival rate, lethal sepsis ([1]; single i.p. dose 15 mg/kg 24 h after onset of sepsis, saline control 33%, P>0.05): 50% | effect on LPS-induced HMGB1 release [2]: effectively inhibited | inhibitory effects on TNF release at higher LPS [3]: often lost
